Some test systems named below: CCRF-CEM leukemia; SK-MEL-2 melanoma; K-562 leukemia; IGROV1 ovarian; BT-549 breast; NCI-H226 lung; A549 NSCLC; MALME-3M melanoma; MDA-MB-435; COLO 205 colon.
Common to all, as to experiment: growth of human tumour cells (NCI), 48 h

The structures appear in SMILES notation.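 All cell lines were grown in 96-well plates and treated with compound for 48 hours. GI50: concentration for 50% inhibition of growth. TGI marks complete inhibition of growth.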

Turning to `O=C(Nc1ccc(Cl)c(C(F)(F)F)c1)C(=O)c1c(O)c2ccccc2oc1=O`, the TGI with CCRF-CEM leukemia, with SK-MEL-2 melanoma, with K-562 leukemia, in the experiment on IGROV1 ovarian, in the experiment on BT-549 breast and with NCI-H226 lung was above 100 µM each time. For the same compound, the TGI with A549 NSCLC, in the experiment on MALME-3M melanoma and in the experiment with MDA-MB-435 was above 100 µM in each case.

On to `COC(=O)[C@]1(C)CCCC2(C)C3=C(CCC21)CC1(CC3)SCCS1` (stereo partly specified), for which the TGI in the experiment with COLO 205 colon, in the experiment on CCRF-CEM leukemia, with K-562 leukemia, in the experiment on IGROV1 ovarian, with BT-549 breast and in the experiment on A549 NSCLC was above 10 µM each time. For the same compound, the TGI in the experiment on MALME-3M melanoma and in the experiment with MDA-MB-435 was above 10 µM each time.

Take `COC(=O)c1ccc2c(c1)C(=O)c1c-2n(CCCCl)c(=O)c2cc(OC)c(OC)cc12`: the GI50 with COLO 205 colon, with CCRF-CEM leukemia, in the experiment on SK-MEL-2 melanoma, in the experiment with K-562 leukemia, in the experiment on IGROV1 ovarian and in the experiment on NCI-H226 lung was above 100 µM each time. Moreover, the GI50 with A549 NSCLC, with MALME-3M melanoma and in the experiment with MDA-MB-435 was above 100 µM in each case. Also, the TGI with COLO 205 colon, in the experiment on CCRF-CEM leukemia, with SK-MEL-2 melanoma, with K-562 leukemia, with IGROV1 ovarian and in the experiment on NCI-H226 lung was above 100 µM each time. Besides, the TGI in the experiment on A549 NSCLC, with MALME-3M melanoma and in the experiment with MDA-MB-435 was above 100 µM throughout.

As to `OC1CSCCSCCCSCCSC1`, the TGI with COLO 205 colon, in the experiment with SK-MEL-2 melanoma, in the experiment with K-562 leukemia, with IGROV1 ovarian, in the experiment on BT-549 breast and in the experiment on NCI-H226 lung was above 100 µM each time. In addition, the TGI with A549 NSCLC and in the experiment on MDA-MB-435 was above 100 µM in each case.

Turning to `O=C1c2ccccc2-c2c1c1ccc([N+](=O)[O-])cc1c(=O)n2CCCCl`, the GI50 in the experiment with SK-MEL-2 melanoma was above 100 µM; with K-562 leukemia, 25.7 µM; in the experiment on IGROV1 ovarian it was above 100 µM; in the experiment on BT-549 breast, 13.3 µM; in the experiment on A549 NSCLC, above 100 µM; in the experiment on MDA-MB-435, 31.7 µM. The TGI in the experiment on SK-MEL-2 melanoma, in the experiment on K-562 leukemia, in the experiment on IGROV1 ovarian, in the experiment on BT-549 breast, in the experiment with A549 NSCLC and with MDA-MB-435 was above 100 µM in each case.

As for `CCOC(=O)c1cc2cc(OCc3ccccc3)ccc2[nH]1`, the GI50 in the experiment on COLO 205 colon, in the experiment on CCRF-CEM leukemia, in the experiment on SK-MEL-2 melanoma, in the experiment on IGROV1 ovarian, in the experiment with BT-549 breast and with NCI-H226 lung was above 100 µM throughout. For the same compound, the GI50 with A549 NSCLC, in the experiment with MALME-3M melanoma and with MDA-MB-435 was above 100 µM throughout. For the same compound, the TGI in the experiment on COLO 205 colon, with CCRF-CEM leukemia, in the experiment with SK-MEL-2 melanoma, in the experiment with IGROV1 ovarian, in the experiment on BT-549 breast and with NCI-H226 lung was above 100 µM in each case. For the same compound, the TGI in the experiment on A549 NSCLC, with MALME-3M melanoma and in the experiment with MDA-MB-435 was above 100 µM throughout.

Consider `COc1cc(OC)c(/C=C/C(=O)c2c(N)cc(OC)cc2OC)c(OC)c1`, for which the GI50 with COLO 205 colon was 2.94 µM; in the experiment with CCRF-CEM leukemia it was 1.26 µM; in the experiment with SK-MEL-2 melanoma it was 0.528 µM; with K-562 leukemia it was 0.305 µM; with IGROV1 ovarian, 0.797 µM; in the experiment with BT-549 breast, 31.7 µM. Moreover, the GI50 in the experiment with NCI-H226 lung was 11.2 µM; with A549 NSCLC it was 0.733 µM; in the experiment on MDA-MB-435, 0.0776 µM. Moreover, the TGI in the experiment with COLO 205 colon is above 45.1 µM; with CCRF-CEM leukemia it was above 100 µM; with SK-MEL-2 melanoma, above 100 µM; in the experiment on K-562 leukemia, above 100 µM; with IGROV1 ovarian, above 100 µM; with BT-549 breast, above 100 µM. Further, the TGI in the experiment on NCI-H226 lung is above 100 µM; with A549 NSCLC it was above 100 µM; with MDA-MB-435, 0.514 µM.

Turning to `CCC1=C(c2ccc(OC)cc2)CC[C@]2(CCNC2=O)[C@@H]1C`, the TGI in the experiment with COLO 205 colon is 19.9 µM; in the experiment on CCRF-CEM leukemia it was 60.8 µM; in the experiment on SK-MEL-2 melanoma, 52.4 µM; with K-562 leukemia, 48.7 µM; in the experiment with IGROV1 ovarian, above 100 µM; in the experiment on NCI-H226 lung, above 100 µM. The TGI in the experiment with A549 NSCLC was above 100 µM; with MALME-3M melanoma, 67.4 µM; with MDA-MB-435 it was 47.2 µM.

As to `O=C(/C=C/c1cccc(Oc2ccc(Cl)cc2)c1)c1ccccc1`, the GI50 with COLO 205 colon was 63.4 µM; with CCRF-CEM leukemia it was 31.6 µM; with SK-MEL-2 melanoma, 148 µM; in the experiment on IGROV1 ovarian, 28.1 µM; in the experiment with BT-549 breast it was 31.6 µM; in the experiment on NCI-H226 lung, 122 µM. The GI50 in the experiment with A549 NSCLC was 138 µM; in the experiment with MALME-3M melanoma it was 38.3 µM; in the experiment with MDA-MB-435, 21.9 µM. For the same compound, the TGI in the experiment on COLO 205 colon came to 283 µM; with CCRF-CEM leukemia, 384 µM; in the experiment on SK-MEL-2 melanoma it was 336 µM; in the experiment on IGROV1 ovarian it was 101 µM; in the experiment on BT-549 breast, 97.5 µM; with NCI-H226 lung it was 273 µM. Moreover, the TGI with A549 NSCLC came out at 298 µM; in the experiment on MALME-3M melanoma it was 175 µM; in the experiment on MDA-MB-435, 50.9 µM.

In the case of `CCN(CC)Cc1cc(Nc2cc(C(F)(F)F)c(C#N)c3nc4ccccc4n23)ccc1O`, the GI50 with COLO 205 colon was 1.41 µM; in the experiment on CCRF-CEM leukemia, 2.79 µM; in the experiment on SK-MEL-2 melanoma it was 1.35 µM; in the experiment on K-562 leukemia, 3.1 µM; in the experiment on BT-549 breast, 2.36 µM; in the experiment on NCI-H226 lung, 1.34 µM. The GI50 with A549 NSCLC was 3.17 µM; with MALME-3M melanoma it was 1.19 µM; in the experiment on MDA-MB-435, 2.29 µM. In addition, the TGI in the experiment on COLO 205 colon was 3.08 µM; in the experiment on CCRF-CEM leukemia it was above 100 µM; in the experiment with SK-MEL-2 melanoma, 7.81 µM; with K-562 leukemia, above 100 µM; in the experiment on BT-549 breast, 8.75 µM; in the experiment on NCI-H226 lung, 10.4 µM. The TGI in the experiment on A549 NSCLC is 12.5 µM; in the experiment with MALME-3M melanoma it was 5.82 µM; in the experiment on MDA-MB-435 it was 13.5 µM.
